Columns and labels:
[1] = system: circulating cytokines or chemokines; assay: Circulating cytokines or chemokines after intratumoral treatment; type: in vivo, mouse; conditions: systemic
MC38 or B16.OVA cells = assay: Single-agent repeated intratumoral injections in mice bearing bilateral tumors; type: in vivo, mouse; conditions: injected tumor
Description: Mouse tumor models. […] Female mice were used at 8-12 weeks of age and housed under specific pathogen-free conditions. The abscopal effect was studied by injecting 4×10^5 MC38 or B16.OVA cells subcutaneously (s.c.) into the right flank of C57BL/6 mice, whereas the left flank received an injection (s.c.) of 2×10^5 (MC38) or 1.25×10^5 (B16.OVA) cancer cells. When right tumors reached a tumor volume of 80-100 mm^3 (approximately one week after tumor inoculation), mice were randomized into different treatment groups.
Evaluation of compounds. […] Control mice received intratumoral injections of PBS containing 5% glucose and/or 5% DMSO (vehicle) as indicated. Treated and untreated tumors were measured twice a week with calipers and the volume was calculated (length×width^2/2). […] When right and left tumors reached a diameter of 80-100 mm, mice were randomized to three groups. […] The control, untreated third-party tumor was untreated in all groups.

## Cc1ccc2c(=O)c3cccc(CC(=O)O)c3oc2c1C [DMXAA, 5,6-dimethylxanthenone-4-acetic acid]
[1]
  circulating type I Interferons, IL-12, IL-18, TNFalpha (TNFα) and CXCL10: either did not cause systemic circulating elevations or only enhanced those observed upon treatment with BO-112
MC38 or B16.OVA cells
  response of directly injected tumors to the treatment: remarkably responded

Reference: patent US20220313724A1, “COMPOSITIONS FOR INTRATUMORAL ADMINISTRATION AND RELATED METHODS” (HIGHLIGHT THERAPEUTICS, S.L., priority 2021, published 2022)
